Test results from patent publication US20240374535A1, “COMPOSITIONS AND METHODS FOR TREATING BIOFILM DISORDERS AND INFECTIONS” (AHV International B.V., priority 2021, published 2024).
Like-named read-outs stand apart in the source and are kept apart here.

How the values were obtained:
[1] = test system: Pseudomonas aeruginosa ATCC 27853; assay: MIC assay (planktonic growth inhibition, OD600); format: cell-based, P. aeruginosa; conditions: for IC50 / IC90: Pseudomonas aeruginosa; for IC50: read-out: P. aeruginosa MIC50; for IC90: read-out: P. aeruginosa MIC90
Experimental: (§1) The exact weighed amount was noted and the volume of solvent to reach a 80 mM dilution calculated. Half of the volume was added first, by adding Tween 80. In a second step, the other half of the volume DMSO was added and the closed tube inverted 5-10 times and then vortexed very thoroughly for at least 30 seconds. If after this procedure unsolved material was still visible, the tube was placed in a shaker at 37° C. at 150 rpm for at least 30 minutes. […] For the MBEC assay (method 1.3) the solution needs to be diluted to a final concentration of 2 mM in 0.9% saline solution and then further diluted to 1 mM, 0.5 mM, 0.25 mM and 0.125 mM in saline. Those dilutions were added as treatment to the 96 well plates with the grown biofilm (see method 3).
(§2) Frozen aliquots of Staphylococcus epidermis ATCC 35984 and Pseudomonas aeruginosa ATCC 27853 were used to inoculate a tryptic soy agar (TSA) plate and incubated overnight at 37° C. After incubation 3-5 well-isolated colonies with the same morphology were selected from the TSA plate and resuspended in 2 mL 0.9% saline solution with 3-6 glass beads and vortexed. The optical density at 600 nm (OD600) of the bacterial suspension was measured with a spectrophotometer (Evolution™ 201/220 UV-Visible Spectrophotometer, Thermo Fisher Scientific) and diluted to an OD600 of 0.0008, which resembles 10^6 CFU/mL.
(§3) The MIC assay was performed in a flat-bottom 96-microtiter plate. 50 μL of MHB-II was added into columns 2-11, and 100 μL to column 12 for sterility control. 100 μL of the 8 mM test compound solution (method 1) was added to column 1. A two-fold dilution series of the solution in MHB-II was achieved by resuspending 50 μL of the 8 mM solution from column 1 to column 2. This step was repeated until column 10. The respective concentration of Tween 80 and DMSO in column 1 was 2.5%, which is two-fold diluted throughout the plate. 50 μL of the bacterial suspension was added to column 1-11. The microtiter plates were sealed with adhesive polyethylene film for sealing microplates (Diversified Biotech) and incubated for 24 h at 37° C. After incubation the OD was measured at 600 nm with the Varioskan (Thermo Fisher Scientific). […] This assay was repeated three times in three independent experiments.

[2] = test system: Staphylococcus epidermis ATCC 35984; assay: MIC assay (planktonic growth inhibition, OD600); format: cell-based, S. epidermidis; conditions: for IC50: read-out: S. epidermidis MIC50; for IC90: read-out: S. epidermidis MIC90
Experimental: as §1, §2, §3

[3] = test system: Staphylococcus epidermis ATCC 35984 biofilm; assay: MBEC assay (biofilm eradication, CFU log reduction); format: cell-based, S. epidermidis; conditions: for minimal effective concentration: read-out: S. epidermidis MBEC mM with log reduction ≥1
Experimental: as §1
(§4) Frozen aliquots of Staphylococcus epidermis ATCC 35984 and Pseudomonas aeruginosa ATCC 27853 were used to inoculate 20 mL of Tryptic Soy Broth (TSB) in a 100 mL Erlenmeyer flask at 37° C. and 150 rpm and incubated overnight (Infors). The OD600 of the overnight culture was measured with a spectrophotometer (Evolution™ 201/220 UV-Visible Spectrophotometer, Thermo Fisher Scientific) and diluted to an OD600 of 0.2, which resembles 10^8 CFU/mL. The cell suspension of OD600=0.2 was seeded into a U-bottom-shaped 96 well plates by pipetting 100 μL per well in column 1-11, column 12 was filled with 100 μL medium as sterility control. The 96 well plates were sealed with adhesive polyethylene film for sealing microplates and incubated for 48 h at 37° C. at static conditions. After the biofilm growth phase, 100 μL of treatment solutions (method 1) were added to the vials resulting in treatment concentrations of 1 mM, 0.5 mM, 0.25 mM and 0.125 mM and with the respective concentration of Tween 80 and DMSO each at 0.63%, 0.32%, 0.16% and 0.08%. The same concentration was applied to four different wells of the same bacterial strain, resulting in four replicates for each concentration and strain. The treatment was incubated for 20 h at 37° C. at static conditions. After the treatment the supernatant was carefully removed and the well with the biofilm washed carefully for one time with 200 μL 0.9% saline solution. 200 μL saline solution was added and the biofilm was resuspended thoroughly. When fully homogenized then 20 μL was used for the first dilution in 180 μL 0.9% saline solution, which was prepared in a second plate. This dilution was continued until dilution step 10E−5 and 100 μL of the 10E−4 and 10E−5 dilution plated on a TSA plate. The TSA plates were incubated at 37° C. for 24 h. The colonies on the plates were enumerated, the colony forming units per mL of the dispensed biofilm and averages thereof and the log reduction in comparison with the untreated sample from the same wells plate calculated. Reduction of colony forming units goes hand in hand with the thickness of the biofilm and thus with the number bacteria that are present in the biofilm. Therefore, a significant reduction of colony forming units in the biofilm was defined at the value of log reduction ≥1 or more. This assay was repeated two times in two independent experiments)

[4] = test system: Pseudomonas aeruginosa ATCC 27853 biofilm; assay: as above; format: cell-based, P. aeruginosa; conditions: for minimal effective concentration: Pseudomonas aeruginosa, read-out: P. aeruginosa MBEC mM with log reduction ≥1
Experimental: as §1, §4

udder cleft wound = assay: In vivo udder cleft dermatitis test: wound assessment after spray treatment; set-up: species or system cow
Experimental: An example of a biofilm-related disorder is Udder Cleft Dermatitis (UCD), which relates to a chronic wound. In this Example, di-alkyl thiosulfonates, dialkyl thiosulfinates and di-alkyl disulfides were tested for their effect on cows affected by UCD.
Experiments were performed to examine the effect of various sprays containing water (control), a test compound, or a reference compound (CTC spray, which contains chlorotetracycline hydrochloride, and was obtained from Dechra veterinary products).
0.35 mL of the spray was sprayed on an udder cleft wound per treatment. Treatments took place once a day at t=0, at t=3 days and t=6 days. In Table 6, the assessment qualifications that are used in Table 7, are explained.

[5] = minimal concentration reducing final OD600 by 50%, 24 h at 37° C.
[6] = minimal concentration reducing final OD600 by 90%, 24 h at 37° C.
[7] = 48 h grown biofilm, 20 h treatment, CFU log reduction vs untreated
[8] = ATCC27853, minimal concentration reducing final OD600 by 50%, 24 h at 37° C.
[9] = ATCC27853, minimal concentration reducing final OD600 by 90%, 24 h at 37° C.
[10] = ATCC27853, 48 h grown biofilm, 20 h treatment, CFU log reduction vs untreated

## Di-isopropyl thiosulfonate
[1]; [5]
  P. aeruginosa MIC50: 2000 µM
[1]; [6]
  P. aeruginosa MIC90: 2000 µM
[2]; [5]
  S. epidermidis MIC50: 2000 µM
[2]; [6]
  S. epidermidis MIC90: 2000 µM
[3]; [7]
  S. epidermidis MBEC mM with log reduction ≥1: >1 mM
[4]; [7]
  P. aeruginosa MBEC mM with log reduction ≥1: >1 mM

## Bis(4-Chlorophenyl) thiosulfonate [Bis (4-chlorophenyl) thiosulfonate]
[1]; [5]
  P. aeruginosa MIC50: 250 µM
[1]; [6]
  P. aeruginosa MIC90: 2000 µM
[2]; [5]
  S. epidermidis MIC50: 30 µM
[2]; [6]
  S. epidermidis MIC90: 60 µM
[3]; [7]
  S. epidermidis MBEC mM with log reduction ≥1: >1 mM
[4]; [7]
  P. aeruginosa MBEC mM with log reduction ≥1: >1 mM

## CCCSS(=O)(=O)c1ccc(C)cc1 [S-propyl-4-methylbenzene thiosulfonate]
[1]; [5]
  P. aeruginosa MIC50: 60 µM
[1]; [6]
  P. aeruginosa MIC90: 60 µM
[2]; [5]
  S. epidermidis MIC50: 60 µM
[2]; [6]
  S. epidermidis MIC90: 130 µM
[3]; [7]
  S. epidermidis MBEC mM with log reduction ≥1: 0.5 mM
[4]; [7]
  P. aeruginosa MBEC mM with log reduction ≥1: >1 mM

## CCCCS[S+]([O-])CCCC (centres unmarked) [Di-n-butyl thiosulfinate, S-butyl butane-1-sulfinothioate]
Udder cleft wound; immediately after the treatment, later infection reduced and wound healed
  inflammation of the udder cleft wound after treatment: fast inflammation reduction
Udder cleft wound; over 60 days, all cows of the group
  Conclusion (effect on udder cleft wound): Positive effect

## Bis(4-fluorophenyl) thiosulfinate [Bis (4-fluorophenyl) thiosulfinate]
[1]; [5]
  P. aeruginosa MIC50: 1000 µM
[1]; [6]
  P. aeruginosa MIC90: 4000 µM
[2]; [5]
  S. epidermidis MIC50: 125 µM
[2]; [6]
  S. epidermidis MIC90: 250 µM
[3]; [7]
  S. epidermidis MBEC mM with log reduction ≥1: >1 mM
[4]; [7]
  P. aeruginosa MBEC mM with log reduction ≥1: >1 mM

## CCSSCC [Di-ethyl disulfide]
[1]; ATCC27853, 24 h
  IC50: > 4 mM
  IC90: > 4 mM
[2]; 24 h
  IC50: > 4 mM
  IC90: > 4 mM
[3]; 20 h
  minimal effective concentration: > 1 mM
[4]; ATCC27853, 20 h
  minimal effective concentration: > 1 mM

## CSSC [Di-methyl disulfide]
[1]; ATCC27853, 24 h
  IC50: > 4 mM
  IC90: > 4 mM
[2]; 24 h
  IC50: > 4 mM
  IC90: > 4 mM
[3]; 20 h
  minimal effective concentration: > 1 mM
[4]; ATCC27853, 20 h
  minimal effective concentration: > 1 mM

## CCCSSC [Methyl propyl disulfide]
[1]; [8]
  IC50: > 4 mM
[1]; [9]
  IC90: > 4 mM
[2]; [5]
  IC50: > 4 mM
[2]; [6]
  IC90: > 4 mM
[3]; [7]
  minimal effective concentration: > 1 mM
[4]; [10]
  minimal effective concentration: > 1 mM

## Bis(4-Fluorophenyl) thiosulfonate [Bis (4-fluorophenyl) thiosulfonate]
[1]; [5]
  P. aeruginosa MIC50: 2000 µM
[1]; [6]
  P. aeruginosa MIC90: 2000 µM
[2]; [5]
  S. epidermidis MIC50: 250 µM
[2]; [6]
  S. epidermidis MIC90: 2000 µM
[3]; [7]
  S. epidermidis MBEC mM with log reduction ≥1: >1 mM
[4]; [7]
  P. aeruginosa MBEC mM with log reduction ≥1: >1 mM

## Bis(4-chlorophenyl) thiosulfinate [Bis (4-chlorophenyl) thiosulfinate]
[1]; [5]
  P. aeruginosa MIC50: 20 µM
[1]; [6]
  P. aeruginosa MIC90: 20 µM
[2]; [5]
  S. epidermidis MIC50: 20 µM
[2]; [6]
  S. epidermidis MIC90: 20 µM
[3]; [7]
  S. epidermidis MBEC mM with log reduction ≥1: >1 mM
[4]; [7]
  P. aeruginosa MBEC mM with log reduction ≥1: >1 mM

## O=S(=O)(Cc1ccccc1)SCc1ccccc1 [Di-benzyl thiosulfonate]
[1]; [5]
  P. aeruginosa MIC50: 4000 µM
[1]; [6]
  P. aeruginosa MIC90: >4000 µM
[2]; [5]
  S. epidermidis MIC50: 2000 µM
[2]; [6]
  S. epidermidis MIC90: 4000 µM
[3]; [7]
  S. epidermidis MBEC mM with log reduction ≥1: 0.125 mM
[4]; [7]
  P. aeruginosa MBEC mM with log reduction ≥1: 0.125 mM

## c1coc(CSSCc2ccco2)c1 [Di-furfuryl disulfide]
[1]; [8]
  IC50: 2 mM
[1]; [9]
  IC90: > 4 mM
[2]; [5]
  IC50: 2 mM
[2]; [6]
  IC90: > 4 mM
[3]; [7]
  minimal effective concentration: > 1 mM
[4]; [10]
  minimal effective concentration: > 1 mM

## CCCCCCSSCCCCCC [Di-n-hexyl disulfide]
[1]; [8]
  IC50: > 4 mM
[1]; [9]
  IC90: > 4 mM
[2]; [5]
  IC50: > 4 mM
[2]; [6]
  IC90: > 4 mM
[3]; [7]
  minimal effective concentration: > 1 mM
[4]; [10]
  minimal effective concentration: > 1 mM

## CCCCCCCCCCSSCCCCCCCCCC [Di-n-decyl disulfide]
[1]; [8]
  IC50: > 4 mM
[1]; [9]
  IC90: > 4 mM
[2]; [5]
  IC50: > 4 mM
[2]; [6]
  IC90: > 4 mM
[3]; [7]
  minimal effective concentration: > 1 mM
[4]; [10]
  minimal effective concentration: > 1 mM

## CCCCCCCCCCS[S+]([O-])CCCCCCCCCC (centres unmarked) [S-decyl-1-decane thiosulfinate]
[1]; [5]
  P. aeruginosa MIC50: >4000 µM
[1]; [6]
  P. aeruginosa MIC90: >4000 µM
[2]; [5]
  S. epidermidis MIC50: >4000 µM
[2]; [6]
  S. epidermidis MIC90: >4000 µM
[3]; [7]
  S. epidermidis MBEC mM with log reduction ≥1: >1 mM
[4]; [7]
  P. aeruginosa MBEC mM with log reduction ≥1: >1 mM
